Test results taken from patent publication US8076338B2, “Kinase modulators and methods of use” (Exelixis, Inc., priority 2004, dated 2011).
Where two headings read alike, the source gives them in different places.

Tests used:
AktK = AktK (Homo sapiens, UniProt P31749); test: Luciferase-coupled chemiluminescence kinase assay (ATP consumption); assay type: biochemical; settings: read-out: AKT-1 IC50
In short: (§1)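 Activity is read as ATP depletion: luciferase-luciferin reagent added after a 3 h ambient-temperature kinase reaction, with total ATP use limited to 25-60%. Before ATP addition, 2.5-5 nM kinase and compound were preincubated 30 min in Tris pH 7.5/MgCl2/TX-100/DTT buffer; […].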

p70S6K = p70S6K (Homo sapiens, UniProt P23443); test: as above; assay type: biochemical
p70S6K, sequence (P23443 whole entry): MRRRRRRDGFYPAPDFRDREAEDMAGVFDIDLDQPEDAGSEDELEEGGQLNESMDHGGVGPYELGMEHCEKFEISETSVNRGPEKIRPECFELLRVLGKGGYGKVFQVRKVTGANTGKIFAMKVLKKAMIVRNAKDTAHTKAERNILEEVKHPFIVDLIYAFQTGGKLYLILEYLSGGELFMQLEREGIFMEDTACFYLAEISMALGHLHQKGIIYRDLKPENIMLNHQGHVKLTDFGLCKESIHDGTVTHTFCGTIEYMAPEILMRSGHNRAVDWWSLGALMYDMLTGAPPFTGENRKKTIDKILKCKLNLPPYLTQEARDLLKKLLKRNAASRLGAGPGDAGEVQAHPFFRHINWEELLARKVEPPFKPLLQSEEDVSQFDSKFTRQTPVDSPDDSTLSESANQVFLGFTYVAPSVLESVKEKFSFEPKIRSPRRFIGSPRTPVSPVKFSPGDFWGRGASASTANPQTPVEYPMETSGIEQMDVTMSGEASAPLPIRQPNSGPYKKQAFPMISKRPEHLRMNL
In short: as §1

AktK, sequence (P31749 whole entry): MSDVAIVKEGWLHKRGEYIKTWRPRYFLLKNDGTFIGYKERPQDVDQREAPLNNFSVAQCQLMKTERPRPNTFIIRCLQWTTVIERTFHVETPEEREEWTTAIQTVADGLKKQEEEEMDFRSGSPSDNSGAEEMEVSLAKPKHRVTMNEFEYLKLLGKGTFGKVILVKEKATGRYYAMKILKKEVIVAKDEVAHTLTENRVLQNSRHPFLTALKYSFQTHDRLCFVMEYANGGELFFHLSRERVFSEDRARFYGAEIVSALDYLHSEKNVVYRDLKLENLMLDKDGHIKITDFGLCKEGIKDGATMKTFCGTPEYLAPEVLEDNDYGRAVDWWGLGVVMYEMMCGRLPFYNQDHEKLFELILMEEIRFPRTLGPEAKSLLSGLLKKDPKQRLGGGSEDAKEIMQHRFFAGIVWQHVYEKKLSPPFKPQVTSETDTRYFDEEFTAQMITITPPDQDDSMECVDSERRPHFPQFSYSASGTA

Structure (SMILES) | IC50 (AktK; Table 1, class symbols per key) | IC50 (p70S6K; Table 1, class symbols per key) | IC50 (AktK) | IC50 (p70S6K)
Cc1noc(-c2cc(NCCN3CCCC3)c(C)c(N3CCN(c4ncnc5[nH]nc(Br)c45)CC3)c2)n1 [Entry 242, 3-[4-(3-bromo-1H-pyrazolo[3,4-d]pyrimidin-4-yl)piperazin-1-yl]-2-methyl-5-(3-methyl-1,2,4-oxadiazol-5-yl)-N-(2-pyrrolidin-1-ylethyl)aniline] | < 100 nM | < 100 nM | – | –
Cc1c(NCCN2CCCC2)cc(C(=O)C2CC2)cc1N1CCN(c2ncnc3[nH]nc(Br)c23)CC1 [Entry 275, {3-[4-(3-bromo-1H-pyrazolo[3,4-d]pyrimidin-4-yl)piperazin-1-yl]-4-methyl-5-[(2-pyrrolidin-1-ylethyl)amino]phenyl}(cyclopropyl)methanone] | < 100 nM | < 100 nM | – | –
Cc1ccc(Cl)cc1N1CCN(c2ncnc3[nH]nc(C#CCN4CCN(C)CC4)c23)CC1 [Entry 398, 4-[4-(5-chloro-2-methylphenyl)piperazin-1-yl]-3-[3-(4-methylpiperazin-1-yl)prop-1-yn-1-yl]-1H-pyrazolo[3,4-d]pyrimidine] | – | – | 1000 to 10000 nM | 100 to 1000 nM
Cc1c(NCCN(C)C)cc(C(=O)NC(C)C)cc1N1CCN(c2ncnc3[nH]nc(Br)c23)CC1 [Entry 227, 3-[4-(3-bromo-1H-pyrazolo[3,4-d]pyrimidin-4-yl)piperazin-1-yl]-5-{[2-(dimethylamino)eth-yl]amino}-4-methyl-N-(1-methylethyl)benzamide] | < 100 nM | < 100 nM | – | –
CCc1n[nH]c2ncnc(N3CCN(c4cccc(Cl)c4)C(C(=O)NCCN(C)C)C3)c12 (stereo not drawn) [Entry 360, 1-(3-chlorophenyl)-N-[2-(dimethylamino)ethyl]-4-(3-ethyl-1H-pyrazolo[3,4-d]pyrimidin-4-yl)piperazine-2-carboxamide] | – | – | 1000 to 10000 nM | 1000 to 10000 nM
CC(C)CCNc1c(F)c(NCCN2CCCC2)nc(N2CCN(c3ncnc4[nH]nc(Br)c34)CC2)c1F [Entry 264, 6-[4-(3-bromo-1H-pyrazolo[3,4-d]pyrimidin-4-yl)piperazin-1-yl]-3,5-difluoro-N~4~-(3-methylbutyl)-N~2~-(2-pyrrolidin-1-ylethyl)pyridine-2,4-diamine] | 100 to 1000 nM | < 100 nM | – | –
CCc1n[nH]c2ncnc(N3CCN(c4cc(F)cc(NCCN5CCCC5)c4Cl)CC3)c12 [Entry 130, 2-chloro-3-[4-(3-ethyl-1H-pyrazolo[3,4-d]pyrimidin-4-yl)piperazin-1-yl]-5-fluoro-N-(2-pyrrolidin-1-ylethyl)aniline] | 1000 to 10000 nM | < 100 nM | – | –
Cc1ccc(C(=O)NCc2ccccc2)cc1N1CCN(c2ncnc3[nH]nc(Br)c23)C[C@@H]1C [Entry 178, 3-[(2S)-4-(3-bromo-1H-pyrazolo[3,4-d]pyrimidin-4-yl)-2-methylpiperazin-1-yl]-4-methyl-N-(phenylmethyl)benzamide] | 1000 to 10000 nM | < 100 nM | – | –
Clc1cccc(N2CCN(c3ncnc4[nH]ncc34)CC2)c1 [Entry 298, 4-[4-(3-chlorophenyl)piperazin-1-yl]-1H-pyrazolo[3,4-d]pyrimidine] | – | – | ≥ 10000 nM | 100 to 1000 nM
CCc1n[nH]c2ncnc(N3CCN(c4cc(Cl)cc(NCCN(C)C)c4C)CC3)c12 [Entry 386, N′-{5-chloro-3-[4-(3-ethyl-1H-pyrazolo[3,4-d]pyrimidin-4-yl)piperazin-1-yl]-2-methylphenyl}-N,N-dimethylethane-1,2-diamine] | – | – | 100 to 1000 nM | < 100 nM
N#Cc1ccc(N2CCN(c3ncnc4[nH]nc(Br)c34)CC2)cc1 [Entry 123, 4-[4-(3-bromo-1H-pyrazolo[3,4-d]pyrimidin-4-yl)piperazin-1-yl]benzonitrile] | ≥ 10000 nM | < 100 nM | – | –
CCc1n[nH]c2ncnc(N3CCN(c4cc(Cl)cc(OC)c4)CC3)c12 [Entry 113, 4-{4-[3-chloro-5-(methyloxy)phenyl]piperazin-1-yl}-3-ethyl-1H-pyrazolo[3,4-d]pyrimidine] | ≥ 10000 nM | < 100 nM | – | –
Cc1c(CCCN2CCN(C)CC2)cc(Cl)cc1N1CCN(c2ncnc3[nH]nc(C(F)(F)F)c23)CC1 [Entry 92, 4-(4-{5-chloro-2-methyl-3-[3-(4-methylpiperazin-1-yl)propyl]phenyl}piperazin-1-yl)-3-(trifluoro-methyl)-1H-pyrazolo[3,4-d]pyrimidine] | 100 to 1000 nM | < 100 nM | – | –
CCCc1n[nH]c2ncnc(N3CCN(c4cc(Cl)ccc4C)CC3)c12 [Entry 330, 4-[4-(5-chloro-2-methylphenyl)piperazin-1-yl]-3-propyl-1H-pyrazolo[3,4-d]pyrimidine] | – | – | 1000 to 10000 nM | < 100 nM
CCc1n[nH]c2ncnc(N3CCN(c4cc(Cl)cc(N5CCOCC5)c4C)CC3)c12 [Entry 361, 4-[4-(5-chloro-2-methyl-3-morpholin-4-ylphenyl)piperazin-1-yl]-3-ethyl-1H-pyrazolo[3,4-d]pyrimidine] | – | – | 1000 to 10000 nM | 100 to 1000 nM

The remaining lines, values ahead:

IC50 (AktK; Table 1, class symbols per key) | IC50 (p70S6K; Table 1, class symbols per key) | IC50 (AktK) | IC50 (p70S6K) | Structure (SMILES)
≥ 10000 nM | < 100 nM | – | – | Clc1ccc(Cl)c(N2CCN(c3ncnc4[nH]nc(Br)c34)CC2)c1 [Entry 95, 3-bromo-4-[4-(2,5-dichlorophenyl)piperazin-1-yl]-1H-pyrazolo[3,4-d]pyrimidine]
– | – | 1000 to 10000 nM | < 100 nM | Cc1ccc(Cl)cc1N1CCN(c2ncnc3[nH]nc(C(C)C)c23)CC1 [Entry 351, 4-[4-(5-chloro-2-methylphenyl)piperazin-1-yl]-3-(1-methylethyl)-1H-pyrazolo[3,4-d]pyrimidine]
≥ 10000 nM | 1000 to 10000 nM | – | – | FC(F)(F)c1cnc(N2CCN(c3ncnc4[nH]nc(Br)c34)CC2)c(Cl)c1 [Entry 136, 3-bromo-4-{4-[3-chloro-5-(trifluoromethyl)pyridin-2-yl]piperazin-1-yl}-1H-pyrazolo[3,4-d]pyrimidine]
≥ 10000 nM | 100 to 1000 nM | – | – | COc1nccnc1N1CCN(c2ncnc3[nH]nc(Br)c23)CC1 [Entry 133, 3-bromo-4-{4-[3-(methyloxy)pyrazin-2-yl]pipera-zin-1-yl}-1H-pyrazolo[3,4-d]pyrimidine]
1000 to 10000 nM | 100 to 1000 nM | – | – | Brc1n[nH]c2ncnc(N3CCN(c4ccccn4)CC3)c12 [Entry 63, 3-bromo-4-(4-pyridin-2-ylpiperazin-1-yl)-1H-pyrazolo[3,4-d]pyrimidine]
1000 to 10000 nM | 100 to 1000 nM | – | – | Brc1n[nH]c2ncnc(N3CCN(c4nccnc4OCCN4CCCCC4)CC3)c12 [Entry 167, 3-bromo-4-(4-{3-[(2-piperidin-1-ylethyl)oxy]pyrazin-2-yl}piperazin-1-yl)-1H-pyrazolo[3,4-d]pyrimidine]
100 to 1000 nM | < 100 nM | – | – | CNC(=O)c1ccc(C)c(N2CCN(c3ncnc4[nH]nc(Br)c34)CC2)c1 [Entry 188, 3-[4-(3-bromo-1H-pyrazolo[3,4-d]pyrimidin-4-yl)piperazin-1-yl]-N,4-dimethylbenzamide]
≥ 10000 nM | 100 to 1000 nM | – | – | Brc1n[nH]c2ncnc(N3CCN(c4cnccn4)CC3)c12 [Entry 107, 3-bromo-4-(4-pyrazin-2-ylpiperazin-1-yl)-1H-pyrazolo[3,4-d]pyrimidine]
≥ 10000 nM | 100 to 1000 nM | – | – | Brc1n[nH]c2ncnc(N3CCN(c4ncccn4)CC3)c12 [Entry 108, 3-bromo-4-(4-pyrimidin-2-ylpiperazin-1-yl)-1H-pyrazolo[3,4-d]pyrimidine]
